From ChEMBL document CHEMBL5113425, “Preparation of a multifunctional photoactivated prodrug on a streptavidin scaffold bearing a DNA aptamer” (Bioorg Med Chem Lett, 2022)
The source made the active and inactive calls. No cut-off for these calls is given here.

What was measured:
SK-BR-3 [1] = assay: Cytotoxicity in human SK-BR-3 cells assessed as reduction in cell viability at 50 to 500 nM incubated for 72 hrs in presence of 15 mins photoirradiation at 365 nm by WST assay; type: functional, cell-based; conditions: dose 50-500 nM
SK-BR-3 [2] = assay: Cytotoxicity in human SK-BR-3 cells assessed as reduction in cell viability at 50 to 500 nM incubated for 72 hrs in absence of 15 mins photoirradiation at 365 nm by WST assay; type: toxicity, cell-based; conditions: sk-br-3, 72 h, 0.5 µM, dose 50-500 nM

SMILES: CC[C@@]1(OC(=O)CCCCNC(=O)OC(C)c2cc(OC)c(OCCCC(=O)NCCN3C(=O)CC(NCCNC(=O)CCCC[C@@H]4SC[C@H]5NC(=O)N[C@@H]45)C3=O)cc2[N+](=O)[O-])C(=O)OCc2c1cc1n(c2=O)Cc2cc3ccccc3nc2-1 (some centres not stated)
- Activity (SK-BR-3 [1]): Active
- Activity (SK-BR-3 [2]): Non-Toxic
